Molecules are shown by their SMILES. Bounds are passed on as bounds.

This experiment has as its target T1, Human TRPC6 (Homo sapiens, UniProt Q9Y210).
T1 construct: expressed in transfected cells
T1 sequence (Q9Y210 1-931): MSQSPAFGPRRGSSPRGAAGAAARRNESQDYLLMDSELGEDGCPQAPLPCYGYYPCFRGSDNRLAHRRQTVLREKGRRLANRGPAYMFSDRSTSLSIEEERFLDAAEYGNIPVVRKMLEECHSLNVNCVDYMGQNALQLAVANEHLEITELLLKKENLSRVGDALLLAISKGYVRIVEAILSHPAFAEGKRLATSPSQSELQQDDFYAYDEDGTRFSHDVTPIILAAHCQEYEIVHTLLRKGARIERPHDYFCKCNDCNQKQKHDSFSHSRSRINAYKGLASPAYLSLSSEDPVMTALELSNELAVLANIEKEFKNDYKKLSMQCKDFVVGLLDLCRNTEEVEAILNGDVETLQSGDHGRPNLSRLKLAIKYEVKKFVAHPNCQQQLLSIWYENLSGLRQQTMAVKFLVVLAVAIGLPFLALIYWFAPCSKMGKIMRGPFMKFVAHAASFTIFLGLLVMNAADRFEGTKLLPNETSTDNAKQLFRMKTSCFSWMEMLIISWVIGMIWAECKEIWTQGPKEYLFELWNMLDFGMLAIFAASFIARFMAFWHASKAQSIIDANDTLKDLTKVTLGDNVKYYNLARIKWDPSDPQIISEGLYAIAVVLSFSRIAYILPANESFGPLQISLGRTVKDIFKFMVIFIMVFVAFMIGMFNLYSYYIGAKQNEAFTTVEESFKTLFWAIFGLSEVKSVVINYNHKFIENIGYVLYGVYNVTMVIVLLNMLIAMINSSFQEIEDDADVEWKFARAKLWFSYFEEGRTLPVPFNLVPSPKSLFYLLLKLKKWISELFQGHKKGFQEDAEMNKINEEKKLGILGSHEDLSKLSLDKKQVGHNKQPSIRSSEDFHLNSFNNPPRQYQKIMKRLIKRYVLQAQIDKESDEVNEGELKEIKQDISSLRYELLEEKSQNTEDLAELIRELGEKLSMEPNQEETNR
The experiment is described as follows: Evaluation of TRPC6 channel inhibitory activity (1), FLIPR Calcium 5 Assay Kit, OAG stimulation (Compound Nos. 1-1293). Type of experiment: cell-based. As to conditions: Human TRPC6 stably-expressing cells, OAG 30 μM, FLIPR Calcium 5 Assay Kit; read-out: Inhibitory activity (pIC50 class) (converted). The gist of the method: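 The FLIPR signal is maximum fluorescence after 30 μM OAG minus minimum before compound, measured in a human TRPC6 stable line loaded with Calcium 5 dye. Compounds were preincubated 20 min. pIC50 came from four-parameter logistic fitting of inhibition rates and is given as symbol ranges.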
Regarding `Cn1nc(C2CC2)cc1Oc1cc(C#N)ccc1-c1cccc(N)n1` [compound 451, 4-(6-aminopyridin-2-yl)-3-(5-cyclopropyl-2-methylpyrazol-3-yl)oxybenzonitrile], the IC50 is greater than 1 µM.

For `Cc1cc(Oc2cc(C#N)ccc2-c2ncc([C@H](O)CN)cn2)cc(N2C[C@@H](C)O[C@@H](C)C2)n1` [compound 506, 4-[5-[(1S)-2-amino-1-hydroxyethyl]pyrimidin-2-yl]-3-[2-[(2S,6R)-2,6-dimethylmorpholin-4-yl]-6-methylpyridin-4-yl]oxybenzonitrile], the IC50 is less than 0.01 µM.

Consider `Cn1nc2c(c1Oc1cc(C#N)ccc1-c1cc(CCN)ccn1)CCC2` [compound 683, 4-[4-(2-aminoethyl)pyridin-2-yl]-3-[(2-methyl-5,6-dihydro-4H-cyclopenta[c]pyrazol-3-yl)oxy]benzonitrile], for which the IC50 is greater than 1 µM.

As for `Cc1cc(Cc2cc(C#N)ccc2-c2ncc(CCN)cn2)cc(N2CCOCC2)n1` [compound 1204, 4-[5-(2-aminoethyl)pyrimidin-2-yl]-3-[(2-methyl-6-morpholin-4-ylpyridin-4-yl)methyl]benzonitrile], the IC50 was 0.01 to 1 µM.

For `Cn1nc(C2CC2)cc1Oc1cc(C#N)ccc1-c1cccn(CCN)c1=O` [compound 573, 4-[1-(2-aminoethyl)-2-oxopyridin-3-yl]-3-(5-cyclopropyl-2-methylpyrazol-3-yl)oxybenzonitrile], the IC50 is 0.01 to 1 µM.

For `N#Cc1ccc(-c2ccc(CCN)cn2)c(Oc2cc(N3CCCCC3)cnn2)c1` [Compound 92, 4-[5-(2-aminoethyl)pyridin-2-yl]-3-(5-piperidin-1-ylpyridazin-3-yl)oxybenzonitrile], the IC50 was greater than 1 µM.

As to `Cc1nc(OCCC(C)C)cc(Oc2cc(C#N)ccc2-c2ccc(CCN)cc2)n1` [Compound 41, 4-[4-(2-aminoethyl)phenyl]-3-[2-methyl-6-(3-methylbutoxy)pyrimidin-4-yl]oxybenzonitrile], the IC50 is greater than 1 µM.

For `N#Cc1ccc(-c2ncc(CN)cn2)c(Oc2ccc(N3C4CCC3CC4)nc2)c1` [compound 753, 4-[5-(aminomethyl)pyrimidin-2-yl]-3-[6-(7-azabicyclo[2.2.1]heptan-7-yl)pyridin-3-yl]oxybenzonitrile], the IC50 was greater than 1 µM.

Take `Cc1nc(Sc2cc(C#N)ccc2-n2cc(CCN)cn2)cc(N2CCCCC2)n1` [compound 1252, 4-[4-(2-aminoethyl)pyrazol-1-yl]-3-(2-methyl-6-piperidin-1-ylpyrimidin-4-yl)sulfanylbenzonitrile]: the IC50 is 0.01 to 1 µM.

Regarding `N#Cc1ccc(-c2ncc(CN)cn2)c(Oc2cnnc(-n3ccccc3=O)c2)c1` [compound 820, 4-[5-(aminomethyl)pyrimidin-2-yl]-3-[6-(2-oxopyridin-1-yl)pyridazin-4-yl]oxybenzonitrile], the IC50 was greater than 1 µM.

On to `CC(=O)Nc1cc(Oc2cc(C#N)ccc2-c2ccc([C@H](O)CN)cn2)n(C)n1` [compound 548, N-[5-[2-[5-[(1S)-2-amino-1-hydroxyethyl]pyridin-2-yl]-5-cyanophenoxy]-1-methylpyrazol-3-yl]acetamide], for which the IC50 is greater than 1 µM.

Consider `Cn1nc(N2CCCC2)cc1Oc1cc(F)ccc1-c1ccc(CN)cn1` [compound 996, [6-[4-fluoro-2-(2-methyl-5-pyrrolidin-1-ylpyrazol-3-yl)oxyphenyl]pyridin-3-yl]methanamine], for which the IC50 is less than 0.01 µM.

As for `Cn1nc(-c2ccccn2)cc1Oc1cc(C#N)ccc1-c1cc(CN)ccn1` [compound 642, 4-[4-(aminomethyl)pyridin-2-yl]-3-(2-methyl-5-pyridin-2-ylpyrazol-3-yl)oxybenzonitrile], the IC50 was less than 0.01 µM.

Turning to `CC(C)Cc1cc(Oc2cc(C#N)ccc2-c2ccc(C(O)CN)cc2)n(C)n1` (centres unmarked) [Compound 212, 4-[4-(2-amino-1-hydroxyethyl)phenyl]-3-[2-methyl-5 (2-methylpropyl)pyrazol-3-yl]oxybenzonitrile], the IC50 was less than 0.01 µM.

Consider `Cc1cc(Oc2cc(C#N)ccc2-c2ncc(CCN)cn2)cc(-c2ncco2)n1` [compound 596, 4-[5-(2-aminoethyl)pyrimidin-2-yl]-3-[2-methyl-6-(1,3-oxazol-2-yl)pyridin-4-yl]oxybenzonitrile], for which the IC50 was 0.01 to 1 µM.

In the case of `Cn1nc(C2CC2)cc1Oc1cc(C#N)ccc1-c1cccn2c(CCN)nnc12` [compound 570, 4-[3-(2-aminoethyl)-[1,2,4]triazolo[4,3-a]pyridin-8-yl]-3-(5-cyclopropyl-2-methylpyrazol-3-yl)oxybenzonitrile], the IC50 was 0.01 to 1 µM.

On to `CCN(CC)c1cc(Oc2cc(C#N)ccc2-c2ccc([C@@H](F)CN)cn2)n(C)n1` [compound 916, 4-[5-[(1R)-2-amino-1-fluoroethyl]pyridin-2-yl]-3-[5-(diethylamino)-2-methylpyrazol-3-yl]oxybenzonitrile], for which the IC50 is less than 0.01 µM.

With `Cc1cc(Oc2cc(C#N)ccc2-c2ncc(CCN3CCOCC3)cn2)cc(N2CCOCC2)n1` [compound 419, 3-(2-methyl-6-morpholin-4-ylpyridin-4-yl)oxy-4-[5-(2-morpholin-4-ylethyl)pyrimidin-2-yl]benzonitrile], the IC50 was greater than 1 µM.

For `Cc1cc(Oc2cc(C#N)ccc2-c2ccc(C3(CN)COC3)cn2)cc(N2CCOCC2)n1` [compound 613, 4-[5-[3-(aminomethyl)oxetan-3-yl]pyridin-2-yl]-3-(2-methyl-6-morpholin-4-ylpyridin-4-yl)oxybenzonitrile], the IC50 was 0.01 to 1 µM.

As for `Cc1nn(C2CCCCC2)cc1Oc1cc(C#N)ccc1-c1ncc(CN)cn1` [compound 865, 4-[5-(aminomethyl)pyrimidin-2-yl]-3-(1-cyclohexyl-3-methylpyrazol-4-yl)oxybenzonitrile], the IC50 was greater than 1 µM.

As to `Cc1cc(Oc2cc(C#N)ccc2-c2ncc([C@H](F)CN)cn2)cc(N2CCOCC2)n1` [compound 872, 4-[5-[(1S)-2-amino-1-fluoroethyl]pyrimidin-2-yl]-3-(2-methyl-6-morpholin-4-ylpyridin-4-yl)oxybenzonitrile], the IC50 was less than 0.01 µM.

As to `Cc1nc(Oc2cc(C#N)ccc2-c2ncc([C@H](O)CN)cn2)cc(N2CCCC2)n1` [compound 508, 4-[5-[(1S)-2-amino-1-hydroxyethyl]pyrimidin-2-yl]-3-(2-methyl-6-pyrrolidin-1-ylpyrimidin-4-yl)oxybenzonitrile], the IC50 was less than 0.01 µM.

Take `Cc1nc(Oc2cc(C#N)ccc2-c2ccc(CCN)cc2)cc(-c2cccn2C)n1` [Compound 28, 4-[4-(2-aminoethyl)phenyl]-3-[2-methyl-6-(1-methylpyrrol-2-yl)pyrimidin-4-yl]oxybenzonitrile]: the IC50 was 0.01 to 1 µM.

Take `CCN(CC(F)F)c1cc(C(=O)c2cc(C#N)ccc2-c2ncc(CCN)cn2)n(C)n1` [compound 1073, 4-[5-(2-aminoethyl)pyrimidin-2-yl]-3-[5-[2,2-difluoroethyl(ethyl)amino]-2-methylpyrazole-3-carbonyl]benzonitrile]: the IC50 is less than 0.01 µM.

Take `Cn1nc(C2CC2)cc1Oc1cc(C#N)ccc1-c1cccn2c(C3CNC3)nnc12` [compound 571, 4-[3-(azetidin-3-yl)-[1,2,4]triazolo[4,3-a]pyridin-8-yl]-3-(5-cyclopropyl-2-methylpyrazol-3-yl)oxybenzonitrile]: the IC50 is greater than 1 µM.

`Cc1cc(Oc2cc(C#N)ccc2-c2ccc(C[C@@H](N)C(=O)O)cn2)cc(N2CCOCC2)n1` [compound 614, (2R)-2-amino-3-[6-[4-cyano-2-(2-methyl-6-morpholin-4-ylpyridin-4-yl)oxyphenyl]pyridin-3-yl]propanoic acid]: the IC50 is greater than 1 µM.

For the compound `Cc1nc(Oc2cc(C#N)ccc2-c2ccc(CCN)cc2)cc(-c2nccs2)n1` [Compound 40, 4-[4-(2-aminoethyl)phenyl]-3-[2-methyl-6-(1,3-thiazol-2-yl)pyrimidin-4-yl]oxybenzonitrile], the IC50 is greater than 1 µM.

For the compound `N#Cc1ccc(-c2ncc(CN)cn2)c(Oc2nnc(-c3ccccn3)s2)c1` [compound 699, 4-[5-(aminomethyl)pyrimidin-2-yl]-3-[(5-pyridin-2-yl-1,3,4-thiadiazol-2-yl)oxy]benzonitrile], the IC50 was greater than 1 µM.

Regarding `Cc1cc(Oc2cc(C#N)ccc2-c2ccc([C@H](O)CN)cn2)cc(N2C[C@@H]3C[C@H]2CO3)n1` [compound 527, 4-[5-[(1S)-2-amino-1-hydroxyethyl]pyridin-2-yl]-3-[2-methyl-6-[(1S,4S)-2-oxa-5-azabicyclo[2.2.1]heptan-5-yl]pyridin-4-yl]oxybenzonitrile], the IC50 is less than 0.01 µM.
